In patent US20010036933A1, “Water soluble lipidated arabinogalactan” (The University of Montana, priority 1996, published 2001):
Each block holds one molecule with its values, some of them ahead of it.

Experiments:
[1] = tested on: neutrophil-HUVEC adhesion; experiment: Neutrophil-HUVEC adhesion under physiological shear forces (closed-loop capillary tube, video-microscopy); format: cell-based, human; settings: for effect on neutrophil rolling on activated HUVEC: 1-100 μg/ml
Description: The in vitro effects of Compound A-F listed in Table I on leucocyte and endothelial cell adhesion under physiological shear forces was examined as follows.
Human umbilical vein endothelial cells (HUVEC) were grown to confluence on the internal surface of collagen type I coated capillary tubes. Endothelial cells were stimulated for 4 hours with […] (10 ng, Genzyme), which upregulates adhesion molecules such as E-selectin within 4-6 hours. Neutrophils and lymphocytes were collected from normal human donors by venipuncture and separated from the blood on ficoll-histoplaque density gradients. The endothelial cell-coated tubes were then integrated into the closed-loop system. Leukocytes were infused into the assay system at a concentration of 1×10^6-5×10^6 cell/ml in DMEM plus 20 mM HEPES. Shear forces of 1-3 dynes/cm^2 (standard representation of blood flow) were applied via a variable speed peristaltic pump, and interactions between the leukocytes and endothelial cells were monitored by video-microscopy. Comparisons were made of the binding of leukocytes and endothelial cells treated with the 6 compounds and untreated controls.
To observe the effects of the compounds on neutrophil adhesive interactions, the neutrophils were infused and allowed to establish rolling for two minutes before the addition of the compounds. The compounds were added in increasing 1 μg/ml, 10 μg/ml, and 100 μg/ml final concentrations at 2 minute intervals. The interactions were recorded to video tape.

ovalbumin (“O.A.”) = experiment: Assay of adjuvant activity: antibody formation in mice injected with ovalbumin plus arabinogalactan compound; format: in vivo; settings: for adjuvant activity in antibody formation in comparison to the control: 25 μg ovalbumin in saline with 50, 10 or 2 μg compound, booster day 21, bled days 7, 14, 28, 35
Description: In the experiment, 25 μg of ovalbumin (“O.A.”) was injected into mice in a saline solution together with 50, 10, 2 or 0 μg (the control) of the arabinogalactan compounds. The animals were prebled prior to immunization; injected; bled on days 7 and 14; given a booster injection on day 21; and bled on days 28 and 35 for antibody determination.

tumor metastases = settings: mice; cited from earlier work
[2] = Formation of oil-water emulsions with water-soluble lipidated arabinogalactan; format: physicochemical
[3] = Solubility of progesterone in water and in aqueous AG decanoate (UV absorption at 250 nm); format: physicochemical; settings: 60° C. 10 min, then 25° C. 20 h
Description: Progesterone was heated with water at 60° C. for 10 min, then held at 25° C. for 20 h. […] When the above experiment was repeated with a 1% aqueous solution of AG decanoate (DS 2.59%) the saturated solution contained 4.7×10^−3% progesterone. In the UV analysis of the AG decanoate solution of the progesterone, the appropriate AG decanoate solution without progesterone was used as a spectrometer blank.

Molecule: AG stearate (DS 1.7%) [B]
concentration effective in blocking neutrophil-HUVEC adhesion [1]: 1 µg/mL
effect on neutrophil rolling on activated HUVEC [1]: significantly blocked

Molecule: galactan from fractional hydrolysis of AG (arabinose 1.5%)
effect on neutrophil rolling on activated HUVEC [1]: no measurable effect

Molecule: AG dodecyl ether (DS 1.3%) [F]
effect on neutrophil rolling on activated HUVEC [1]: no measurable effect

Molecule: AG (ultrarefined) [Compound A, reference compound]
adjuvant activity in antibody formation in comparison to the control (ovalbumin (“O.A.”)): some adjuvant activity
effect on neutrophil rolling on activated HUVEC [1]: significantly blocked
reduction in neutrophil adhesion ([1]; during the time course, 1, 10, 100 μg/ml added at 2 minute intervals, IL-stimulated HUVEC): ~75%
reduction of neutrophil binding to baseline ([1]; even at 10 μg/ml or 100 μg/ml): did not reduce binding to baseline
effect on tumor metastases (tumor metastases): reduce tumor metastases

Molecule: AG palmitate [high substitution (DS 7.3%) AG palmitate]
adjuvant activity in antibody formation in comparison to the control (ovalbumin (“O.A.”)): some adjuvant activity

Molecule: AG palmitate (DS 1.7%) [C]
adjuvant activity in antibody formation in comparison to the control (ovalbumin (“O.A.”)): some adjuvant activity
adjuvant activity, rank among the three arabinogalactan compounds (ovalbumin (“O.A.”); ovalbumin antigen): highest adjuvant activity
concentration effective in blocking neutrophil-HUVEC adhesion [1]: 1 µg/mL
effect on neutrophil rolling on activated HUVEC [1]: significantly blocked
stability of emulsion with safflower oil ([2]; 2 mL 1.0% aqueous solution mixed with safflower oil (4 g), room temperature): no separation of phases was evident after several days
behaviour on shaking with hexane ([2]; 2 mL 1% solution shaken with hexane (1 mL)): upper phase became extremely viscous and opaque and remained in this state for several days

dissolved progesterone in saturated solution ([3]; 1% aqueous solution of AG decanoate (DS 2.59%)): 4.7×10^−3%
dissolved progesterone in saturated solution ([3]; water): 8.8×10^−4%
Molecule: CC(=O)[C@H]1CC[C@H]2[C@@H]3CCC4=CC(=O)CC[C@]4(C)[C@H]3CC[C@]12C [Progesterone]

Molecule: AG decanoate (DS 2.6%)
effect on neutrophil rolling on activated HUVEC [1]: no measurable effect
